Laboratory results reported in patent EP3046573B1, “AMYLIN ANALOGUES” (Zealand Pharma A/S, priority 2013, dated 2015).
Like-named read-outs stand apart in the source and are kept apart here. Numbered stars: 1 amine (or outer) side, 2 acyl side, 3 side chain; on linkers, the order of the positions; unused ones are H or OH. Bridge positions count the residues as written; N and C are the ends. Square brackets hold non-standard residues; d marks the D form. Peptide text beside a SMILES is read from it. * marks the point of attachment. C20 diacid = O=C(O)CCCCCCCCCCCCCCCCCCC(=O)*; γGlu = O=C(O)[C@H](CCC(=O)[*:2])N[*:1]; NMeI = CC[C@H](C)[C@H](NC)C(=O)O; Sar = CNCC(=O)O

How the values were obtained:
[1] = target: T1, human calcitonin receptor (hCTR2) (Homo sapiens, UniProt P30988); assay: hCTR2 assay: induction of cAMP (AlphaScreen cAMP Assay kit) in COS7 cells expressing hCTR2; type: cell-based
T1 construct: expressed in transfected cells
T1 sequence (P30988 25-474): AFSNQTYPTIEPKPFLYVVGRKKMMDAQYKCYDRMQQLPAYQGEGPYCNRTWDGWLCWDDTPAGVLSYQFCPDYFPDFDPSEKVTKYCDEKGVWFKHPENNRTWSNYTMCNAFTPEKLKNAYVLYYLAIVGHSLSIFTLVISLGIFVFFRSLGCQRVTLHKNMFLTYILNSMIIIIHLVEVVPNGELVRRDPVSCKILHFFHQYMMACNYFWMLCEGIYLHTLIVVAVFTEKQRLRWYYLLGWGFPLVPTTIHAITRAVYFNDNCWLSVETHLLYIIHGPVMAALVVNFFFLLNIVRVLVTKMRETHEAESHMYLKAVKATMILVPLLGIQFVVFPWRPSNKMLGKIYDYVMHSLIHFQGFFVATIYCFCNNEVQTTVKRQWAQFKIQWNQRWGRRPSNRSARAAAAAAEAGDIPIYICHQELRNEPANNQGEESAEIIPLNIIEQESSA
Procedure, shortened: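 Functional agonism is measured as cAMP accumulation in a COS7 line stably transfected with hCTR2, lacking endogenous RAMPs. Peptides act for 15 min at 37° C with IBMX present, and curves are fitted with a 4-parameter logistic model.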

[2] = Solubility assessment (turbidity absorbance at 325 nm); type: physicochemical; conditions: stock 2 mg/ml diluted 1:1, ambient temperature (typically 25°C), n=1; for Solubility, Acetate buffer pH 4: 100 mM acetate buffer pH 4.0; for Solubility, Acetate buffer pH 5: 100 mM acetate buffer pH 5.0; for Solubility, Histidine buffer pH 6: 100 mM histidine buffer pH 6.0; for Solubility, Histidine buffer pH 7: 100 mM histidine buffer pH 7.0; for Solubility, Phosphate buffer pH 6: 100 mM phosphate buffer pH 6.0; for Solubility, Phosphate buffer pH 7: 100 mM phosphate buffer pH 7.0; for Solubility, Phosphate buffer pH 7.5: 100 mM phosphate buffer pH7.5
Procedure, shortened: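 Peptide stock (2 mg/ml) in water acidified to pH 2.5 with HCl was diluted 1:1 into 100 mM acetate (pH 4.0, 5.0), histidine (pH 6.0, 7.0) or phosphate (pH 6.0, 7.0, 7.5) buffer. A280 and A325 were read at about 25°C, n=1. A325 ≤ 0.02 meant solubility ≥ 1 mg/ml.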

[3] = cAMP induction in COS7 cells expressing hCTR2, average of a minimum of 3 determinations, read-out: hCTR2 EC50

Row | Solubility, Acetate buffer pH 4 [2] | Solubility, Acetate buffer pH 5 [2] | Solubility, Histidine buffer pH 6 [2] | Solubility, Histidine buffer pH 7 [2] | Solubility, Phosphate buffer pH 6 [2] | Solubility, Phosphate buffer pH 7 [2] | Solubility, Phosphate buffer pH 7.5 [2] | EC50 [1, 3] [nM] | Structure (SMILES) | EC50 [1] [nM]
1 | SS (SS indicates solubility ≥ 1mg/ml) | SS (SS indicates solubility ≥ 1mg/ml) | SS (SS indicates solubility ≥ 1mg/ml) | SS (SS indicates solubility ≥ 1mg/ml) | SS (SS indicates solubility ≥ 1mg/ml) | SS (SS indicates solubility ≥ 1mg/ml) | SS (SS indicates solubility ≥ 1mg/ml) | 0.097 | CC[C@H](C)[C@@H](C(=O)N[C@@H](CC(C)C)C(=O)N[C@@H](CO)C(=O)N[C@@H](CO)C(=O)N[C@H](C(=O)N[C@@H](CC(=O)O)C(=O)N[C@H](C(=O)NCC(=O)N[C@@H](CO)C(=O)N[C@@H](CCC(=O)O)C(=O)N[C@H](C(=O)N1CCC[C@H]1C(N)=O)[C@@H](C)O)C(C)C)[C@@H](C)O)N(C)C(=O)[C@H](C)NC(=O)CN(C)C(=O)[C@H](Cc1ccccc1)NC(=O)[C@H](CO)NC(=O)[C@H](CO)NC(=O)[C@H](CO)NC(=O)[C@H](CO)NC(=O)[C@H](CCCNC(=N)N)NC(=O)[C@H](Cc1c[nH]cn1)NC(=O)[C@H](CC(C)C)NC(=O)[C@H](Cc1ccccc1)NC(=O)[C@H](CCC(=O)O)NC(=O)[C@H](C)NC(=O)[C@H](CC(C)C)NC(=O)[C@H](CCCNC(=N)N)NC(=O)[C@H](CCC(N)=O)NC(=O)[C@@H](NC(=O)[C@H](C)NC(=O)[C@@H]1CSSC[C@H](NC(=O)[C@H](CCCNC(=N)N)NC(=O)CC[C@H](NC(=O)CCCCCCCCCCCCCCCCCCC(=O)O)C(=O)O)C(=O)N[C@@H](CC(N)=O)C(=O)N[C@@H]([C@@H](C)O)C(=O)N[C@@H](C)C(=O)N[C@@H]([C@@H](C)O)C(=O)N1)[C@@H](C)O [Compound 74, [19CD]-isoGlu-RC()NTATC()ATQRLAEFLHRSSSSF-Gly(Me)-A-Ile(Me)-LSSTDVGSETP-NH2] ({C20 diacid-γGlu}-RCNTATCATQRLAEFLHRSSSSF[Sar]A[NMeI]LSSTDVGSETP-NH2; disulfide 2-7) | 
2 | SS (SS indicates solubility ≥ 1mg/ml) | II (II indicates solubility ≤ 1 mg/ml) | II (II indicates solubility ≤ 1 mg/ml) | SS (SS indicates solubility ≥ 1mg/ml) | SS (SS indicates solubility ≥ 1mg/ml) | SS (SS indicates solubility ≥ 1mg/ml) | SS (SS indicates solubility ≥ 1mg/ml) | 0.11 | CC[C@H](C)[C@@H](C(=O)N[C@@H](CC(C)C)C(=O)N[C@@H](CO)C(=O)N[C@@H](CO)C(=O)N[C@H](C(=O)N[C@@H](CC(=O)O)C(=O)N[C@H](C(=O)NCC(=O)N[C@@H](CO)C(=O)N[C@@H](CCC(=O)O)C(=O)N[C@H](C(=O)N1CCC[C@H]1C(N)=O)[C@@H](C)O)C(C)C)[C@@H](C)O)N(C)C(=O)CN(C)C(=O)[C@H](Cc1ccccc1)NC(=O)[C@H](CO)NC(=O)[C@H](CO)NC(=O)[C@H](CO)NC(=O)[C@H](CO)NC(=O)[C@H](CCCNC(=N)N)NC(=O)[C@H](Cc1c[nH]cn1)NC(=O)[C@H](CC(C)C)NC(=O)[C@H](Cc1ccccc1)NC(=O)[C@H](CCC(=O)O)NC(=O)[C@H](C)NC(=O)[C@H](CC(C)C)NC(=O)[C@H](CCCNC(=N)N)NC(=O)[C@H](CCC(N)=O)NC(=O)[C@@H](NC(=O)[C@H](C)NC(=O)[C@@H]1CSSC[C@H](NC(=O)[C@H](CCCNC(=N)N)NC(=O)CC[C@H](NC(=O)CCCCCCCCCCCCCCCCCCC(=O)O)C(=O)O)C(=O)N[C@@H](CC(N)=O)C(=O)N[C@@H]([C@@H](C)O)C(=O)N[C@@H](C)C(=O)N[C@@H]([C@@H](C)O)C(=O)N1)[C@@H](C)O [Compound 75, [19CD]-isoGlu-RC()NTATC()ATQRLAEFLHRSSSSF-Gly(Me)-Ile(Me)-LSSTDVGSETP-NH2] ({C20 diacid-γGlu}-RCNTATCATQRLAEFLHRSSSSF[Sar][NMeI]LSSTDVGSETP-NH2; disulfide 2-7) | 
3 | SS (SS indicates solubility ≥ 1mg/ml) | SS (SS indicates solubility ≥ 1mg/ml) | SS (SS indicates solubility ≥ 1mg/ml) | SS (SS indicates solubility ≥ 1mg/ml) | SS (SS indicates solubility ≥ 1mg/ml) | SS (SS indicates solubility ≥ 1mg/ml) | SS (SS indicates solubility ≥ 1mg/ml) | 0.07 | CC[C@H](C)[C@@H](C(=O)N[C@@H](CC(C)C)C(=O)N[C@@H](CO)C(=O)N[C@@H](CO)C(=O)N[C@H](C(=O)N[C@@H](CCC(=O)O)C(=O)N[C@H](C(=O)NCC(=O)N[C@@H](CO)C(=O)N[C@@H](CC(=O)O)C(=O)N[C@H](C(=O)N1CCC[C@H]1C(N)=O)[C@@H](C)O)C(C)C)[C@@H](C)O)N(C)C(=O)[C@H](C)NC(=O)CN(C)C(=O)[C@H](Cc1ccccc1)NC(=O)[C@H](CO)NC(=O)[C@H](CO)NC(=O)[C@H](CCCNC(=N)N)NC(=O)[C@H](Cc1c[nH]cn1)NC(=O)[C@H](CC(C)C)NC(=O)[C@H](Cc1ccccc1)NC(=O)[C@H](CCC(=O)O)NC(=O)[C@H](C)NC(=O)[C@H](CC(C)C)NC(=O)[C@H](CCCNC(=N)N)NC(=O)[C@H](CCC(N)=O)NC(=O)[C@@H](NC(=O)[C@H](C)NC(=O)[C@@H]1CSSC[C@H](NC(=O)[C@H](CCCNC(=N)N)NC(=O)CC[C@H](NC(=O)CCCCCCCCCCCCCCCCCCC(=O)O)C(=O)O)C(=O)N[C@@H](CC(N)=O)C(=O)N[C@@H]([C@@H](C)O)C(=O)N[C@@H](C)C(=O)N[C@@H]([C@@H](C)O)C(=O)N1)[C@@H](C)O [Compound 78, [19CD]-isoGlu-RC()NTATC()ATQRLAEFLHRSSF-Gly(Me)-A-Ile(Me)-LSSTEVGSDTP-NH2] ({C20 diacid-γGlu}-RCNTATCATQRLAEFLHRSSF[Sar]A[NMeI]LSSTEVGSDTP-NH2; disulfide 2-7) | 

Row | Structure (SMILES) | Solubility, Acetate buffer pH 4 [2] | Solubility, Acetate buffer pH 5 [2] | Solubility, Histidine buffer pH 6 [2] | Solubility, Histidine buffer pH 7 [2] | Solubility, Phosphate buffer pH 6 [2] | Solubility, Phosphate buffer pH 7 [2] | Solubility, Phosphate buffer pH 7.5 [2] | EC50 [1, 3] [nM] | EC50 [1] [nM]
4 | CC[C@H](C)[C@@H](C(=O)N[C@@H](CC(C)C)C(=O)N[C@@H](CO)C(=O)N[C@@H](CO)C(=O)N[C@H](C(=O)N[C@@H](CC(N)=O)C(=O)N[C@H](C(=O)NCC(=O)N[C@@H](CO)C(=O)N[C@@H](CC(N)=O)C(=O)N[C@H](C(=O)N1CCC[C@H]1C(N)=O)[C@@H](C)O)C(C)C)[C@@H](C)O)N(C)C(=O)[C@H](C)NC(=O)CN(C)C(=O)[C@@H](Cc1ccccc1)NC(=O)[C@H](CC(N)=O)NC(=O)[C@H](CC(N)=O)NC(=O)[C@H](CO)NC(=O)[C@H](CO)NC(=O)[C@H](CCCNC(=N)N)NC(=O)[C@H](Cc1c[nH]cn1)NC(=O)[C@H](CC(C)C)NC(=O)[C@H](Cc1ccccc1)NC(=O)[C@H](CCC(=O)O)NC(=O)[C@H](C)NC(=O)[C@H](CC(C)C)NC(=O)[C@H](CCCNC(=N)N)NC(=O)[C@H](CCC(N)=O)NC(=O)[C@@H](NC(=O)[C@H](C)NC(=O)[C@@H]1CSSC[C@H](NC(=O)[C@H](CCCCN)NC(=O)CC[C@H](NC(=O)CCCCCCCCCCCCCCCCCCC(=O)O)C(=O)O)C(=O)N[C@@H](CC(N)=O)C(=O)N[C@@H]([C@@H](C)O)C(=O)N[C@@H](C)C(=O)N[C@@H]([C@@H](C)O)C(=O)N1)[C@@H](C)O [Compound 71, [19CD]-isoGlu-KC()NTATC()ATQRLAEFLHRSSNN-DPhe-Gly(Me)-A-Ile(Me)-LSSTNVGSNTP-NH2] ({C20 diacid-γGlu}-KCNTATCATQRLAEFLHRSSNN[dF][Sar]A[NMeI]LSSTNVGSNTP-NH2; disulfide 2-7) | SS (SS indicates solubility ≥ 1mg/ml) | SS (SS indicates solubility ≥ 1mg/ml) | SS (SS indicates solubility ≥ 1mg/ml) | SS (SS indicates solubility ≥ 1mg/ml) | SS (SS indicates solubility ≥ 1mg/ml) | SS (SS indicates solubility ≥ 1mg/ml) | SS (SS indicates solubility ≥ 1mg/ml) |  | 0.068
